Here are results for 2 compounds from PMC4178217, “Quinoline 3-sulfonamides inhibit lactate dehydrogenase A and reverse aerobic glycolysis in cancer cells” (Cancer & Metabolism, 2013).

Entries after “also recorded” stand apart in the source; their conditions may differ. Where two headings read alike, the source gives them in different places.

Series [1] addresses Norepinephrin Transporter (Homo sapiens, UniProt P23975). Put plainly: Norepinephrin Transporter ANT. As to conditions: antagonist; read-out: pIC50 Norepinephrin Transporter ANT (converted). An excerpt: (§1) ANT = antagonist (pIC50), AG = agonist (pEC50). pIC50 and pEC50 are the negative logarithms10 of IC50 and EC50, respectively. Click here for file
The target of series [2] is T1, Muscarinic Receptor M2 (Homo sapiens, UniProt P08172).
T1 sequence (P08172 1-466): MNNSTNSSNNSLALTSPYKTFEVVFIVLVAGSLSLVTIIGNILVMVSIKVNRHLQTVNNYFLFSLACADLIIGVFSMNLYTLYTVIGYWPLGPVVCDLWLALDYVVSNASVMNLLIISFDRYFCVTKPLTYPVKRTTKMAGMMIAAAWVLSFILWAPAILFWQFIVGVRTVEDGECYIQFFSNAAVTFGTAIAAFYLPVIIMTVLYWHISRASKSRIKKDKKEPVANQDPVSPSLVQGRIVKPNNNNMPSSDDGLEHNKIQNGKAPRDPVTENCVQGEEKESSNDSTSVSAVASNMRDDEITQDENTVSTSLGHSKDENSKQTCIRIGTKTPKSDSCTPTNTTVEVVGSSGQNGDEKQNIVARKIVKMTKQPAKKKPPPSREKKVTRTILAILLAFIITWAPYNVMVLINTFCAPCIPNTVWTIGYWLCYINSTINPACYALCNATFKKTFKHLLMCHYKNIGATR
Put plainly: Muscarinic Receptor M2 ANT. The following applies: antagonist; read-out: pIC50 Muscarinic Receptor M2 ANT (converted).
Source text: as §1

Series [3] addresses recombinant human LDHB (Homo sapiens, UniProt P07195). Kind of series: recombinant human LDHB enzyme assay (lactate to pyruvate, NADH via diaphorase/resazurin). (Resazurin is reduced to fluorescent resorufin, in cell work by metabolically active cells.)
The target in series [4] is Opioid Receptor m (Homo sapiens, UniProt P35372). Kind of series: Opioid Receptor m ANT. The following applies: antagonist; read-out: pIC50 Opioid Receptor m ANT (converted).
Source text: as §1

Series [5] deals with Sodium Channel NaV 1.5 (Homo sapiens, UniProt Q14524). Kind of series: Sodium Channel NaV 1.5 ANT. As to conditions: antagonist; read-out: pIC50 Sodium Channel NaV 1.5 ANT (converted).
Source text: as §1

The subject of series [6] is Snu398 cells. Put plainly: Fructose-1,6-bisphosphate (FBP) analysis. The following applies: Snu398, 10 μM, 24 h R10 or 6 h low glucose. In kind it is cell-based, human. The procedure:
Treatment was carried out for 24 h in R10 or for 6 h in low glucose medium. At the end of this treatment, cells were washed, lifted by trypsinization, counted, and cell pellets were submitted for analysis of FBP to Apredica, Inc.

The target of series [7] is Phosphodiesterase 4B (Homo sapiens, UniProt Q07343). Put plainly: Phosphodiesterase 4B ANT. In kind it is biochemical. The following applies: antagonist; read-out: pIC50 Phosphodiesterase 4B ANT (converted).
Source text: as §1

Series [8] concerns the target Serotonin Receptor 5HT1B (Homo sapiens, UniProt P28222). Put plainly: Serotonin Receptor 5HT1B AG. As to conditions: agonist; read-out: pEC50 Serotonin Receptor 5HT1B AG (converted).
Source text: as §1

Series [9] relates to HepG2 cells. Put plainly: Oxygen consumption and extracellular acidification rates, HepG2 (Seahorse). The following applies: for EC50: Homo sapiens, 92 min, HepG2, 92 minutes after addition. In kind it is cell-based, human. The procedure: One hundred twenty thousand Snu398 or HepG2 human hepatocellular carcinoma cells per well were plated in XF24 PS or XF96 PET cell culture microplates (Seahorse Biosciences, North Billerica, MA, USA) and allowed to attach and proliferate for 18 h. Cells were equilibrated with DMEM lacking bicarbonate (Seahorse Biosciences) supplemented with glucose at 37°C for 1 h in an incubator lacking CO2. The rate of change of dissolved O2 (oxygen consumption rate, OCR) and rate of change of pH (extracellular acidification rate, ECAR) in medium immediately surrounding the cells was measured in the XF24 Analyzer (Seahorse Biosciences) per manufacturer’s instructions. Compound doses were injected into the wells at the indicated times. For dose response curves, the OCR and ECAR levels obtained in each well before compound addition were subtracted from the values obtained 92 minutes after compound addition.
For XF96 experiments breast cancer cells were seeded in DMEM without bicarbonate at 16,000/well in XF96 V3 PET plates (Seahorse Biosciences) coated with CellTak (BD Biosciences, San Jose, CA, USA). […] HepG2 cells were seeded at 16K/well in XF96 V3 PET plates and left overnight for attachment. The medium was exchanged with DMEM without bicarbonate prior to readings on the XF96 Analyzer (Seahorse Biosciences).

The nature of series [10]: rat plasma protein equilibrium dialysis assay. In kind it is in vitro ADME. As to conditions: read-out: rat plasma protein binding (converted). (In general: In equilibrium dialysis free small molecules cross a membrane that holds back macromolecules.)
The test system of series [11] is Snu398 cells. Put plainly: Compound cellular permeability assay, whole-cell extract. In kind it is in vitro ADME, human. The following applies: Snu398 treated with 1 μM for 1.5 h. The procedure:
Compound cellular permeability assays For cytosolic permeability assay, twelve million Snu398 cells were allowed to attach overnight and treated with DMSO control or 1 µM Compound 2 for 1.5 h in 1.7 mM glucose medium. The medium was removed, cells were washed in phosphate-buffered saline (PBS), and cytosolic extracts were prepared by solubilization in Qproteome lysis buffer (Qiagen, Valencia, CA). For whole-cell permeability assay, 75,000 Snu398 cells/well were plated in 96-well plates and treated with DMSO control or 1 µM compounds for 1.5h in low glucose medium. The medium was removed, cells were washed in PBS and solubilized in 50:50 mixture of methanol and acetonitrile. Compound concentration in the cytosolic or whole-cell extract was determined by LC/MS/MS analysis. An Acquity UPLC system (Waters Inc., Milford, MA) was coupled to an API 4000 or API 5000 triple-quad mass spectrometer (Applied Biosystems). […] Compound concentration in cells was determined by counting the number of cells in sample wells and assuming 3 pL/cell volume.

The nature of series [12]: PK analysis in mice. In kind it is in vivo, male CD mice. As to conditions: oral 100 mg/kg, detection limit 2.5 ng/mL. The procedure: All studies were conducted after review by the Institutional Animal Care and Use Committee at GlaxoSmithKline (GSK) and in accordance with the GSK Policy on the Care, Welfare and Treatment of Laboratory Animals.
Series [13] relates to permeabilized HepG2 cells. Kind of series: Seahorse XF96 permeabilized cells (mitochondrial function). In kind it is cell-based, human. The procedure:
HepG2 cells were seeded overnight in DMEM, 10% FBS, at 16,000 cells/well in an XF96 V3 PET plate. The next day, the medium was removed, and the wells were rinsed and filled with mitochondrial assay solution (MAS: 70 mM sucrose, 220 mM mannitol, 10 mM KH2PO4, 5 mM MgCl2, 2 mM HEPES, 1.0 mM EGTA) containing 10 mM pyruvate/10 mM malate/4 mM ADP and 2 nM XF Plasma Membrane Permeabilizer (PMP) (Seahorse Biosciences). […]. OCR and ECAR readings were determined for three cycles (two minutes mixing, two minutes measuring) after each compound addition.

Sequence of Serotonin Receptor 5HT1B (P28222 whole entry): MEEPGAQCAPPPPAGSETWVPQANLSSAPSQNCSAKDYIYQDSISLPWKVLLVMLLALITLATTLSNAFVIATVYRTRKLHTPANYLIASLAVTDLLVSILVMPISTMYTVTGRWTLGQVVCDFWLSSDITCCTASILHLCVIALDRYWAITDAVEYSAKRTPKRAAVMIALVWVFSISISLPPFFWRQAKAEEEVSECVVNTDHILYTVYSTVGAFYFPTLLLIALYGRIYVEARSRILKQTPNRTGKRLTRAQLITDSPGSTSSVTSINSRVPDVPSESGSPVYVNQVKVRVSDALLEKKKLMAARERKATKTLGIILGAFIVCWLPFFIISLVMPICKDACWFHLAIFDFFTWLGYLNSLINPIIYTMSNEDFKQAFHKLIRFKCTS
Sequence of Opioid Receptor m (P35372 whole entry): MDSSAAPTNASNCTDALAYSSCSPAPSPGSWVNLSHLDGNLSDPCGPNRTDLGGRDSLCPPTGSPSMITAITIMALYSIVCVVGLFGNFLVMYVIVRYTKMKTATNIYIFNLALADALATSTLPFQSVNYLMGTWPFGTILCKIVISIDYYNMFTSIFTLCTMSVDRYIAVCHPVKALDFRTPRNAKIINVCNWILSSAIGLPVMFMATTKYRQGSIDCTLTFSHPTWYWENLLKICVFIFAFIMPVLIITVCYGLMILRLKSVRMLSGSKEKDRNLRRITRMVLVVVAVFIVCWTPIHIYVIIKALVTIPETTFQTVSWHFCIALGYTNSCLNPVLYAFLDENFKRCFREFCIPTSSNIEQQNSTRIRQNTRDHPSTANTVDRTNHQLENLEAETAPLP
Sequence of Sodium Channel NaV 1.5 (Q14524 whole entry): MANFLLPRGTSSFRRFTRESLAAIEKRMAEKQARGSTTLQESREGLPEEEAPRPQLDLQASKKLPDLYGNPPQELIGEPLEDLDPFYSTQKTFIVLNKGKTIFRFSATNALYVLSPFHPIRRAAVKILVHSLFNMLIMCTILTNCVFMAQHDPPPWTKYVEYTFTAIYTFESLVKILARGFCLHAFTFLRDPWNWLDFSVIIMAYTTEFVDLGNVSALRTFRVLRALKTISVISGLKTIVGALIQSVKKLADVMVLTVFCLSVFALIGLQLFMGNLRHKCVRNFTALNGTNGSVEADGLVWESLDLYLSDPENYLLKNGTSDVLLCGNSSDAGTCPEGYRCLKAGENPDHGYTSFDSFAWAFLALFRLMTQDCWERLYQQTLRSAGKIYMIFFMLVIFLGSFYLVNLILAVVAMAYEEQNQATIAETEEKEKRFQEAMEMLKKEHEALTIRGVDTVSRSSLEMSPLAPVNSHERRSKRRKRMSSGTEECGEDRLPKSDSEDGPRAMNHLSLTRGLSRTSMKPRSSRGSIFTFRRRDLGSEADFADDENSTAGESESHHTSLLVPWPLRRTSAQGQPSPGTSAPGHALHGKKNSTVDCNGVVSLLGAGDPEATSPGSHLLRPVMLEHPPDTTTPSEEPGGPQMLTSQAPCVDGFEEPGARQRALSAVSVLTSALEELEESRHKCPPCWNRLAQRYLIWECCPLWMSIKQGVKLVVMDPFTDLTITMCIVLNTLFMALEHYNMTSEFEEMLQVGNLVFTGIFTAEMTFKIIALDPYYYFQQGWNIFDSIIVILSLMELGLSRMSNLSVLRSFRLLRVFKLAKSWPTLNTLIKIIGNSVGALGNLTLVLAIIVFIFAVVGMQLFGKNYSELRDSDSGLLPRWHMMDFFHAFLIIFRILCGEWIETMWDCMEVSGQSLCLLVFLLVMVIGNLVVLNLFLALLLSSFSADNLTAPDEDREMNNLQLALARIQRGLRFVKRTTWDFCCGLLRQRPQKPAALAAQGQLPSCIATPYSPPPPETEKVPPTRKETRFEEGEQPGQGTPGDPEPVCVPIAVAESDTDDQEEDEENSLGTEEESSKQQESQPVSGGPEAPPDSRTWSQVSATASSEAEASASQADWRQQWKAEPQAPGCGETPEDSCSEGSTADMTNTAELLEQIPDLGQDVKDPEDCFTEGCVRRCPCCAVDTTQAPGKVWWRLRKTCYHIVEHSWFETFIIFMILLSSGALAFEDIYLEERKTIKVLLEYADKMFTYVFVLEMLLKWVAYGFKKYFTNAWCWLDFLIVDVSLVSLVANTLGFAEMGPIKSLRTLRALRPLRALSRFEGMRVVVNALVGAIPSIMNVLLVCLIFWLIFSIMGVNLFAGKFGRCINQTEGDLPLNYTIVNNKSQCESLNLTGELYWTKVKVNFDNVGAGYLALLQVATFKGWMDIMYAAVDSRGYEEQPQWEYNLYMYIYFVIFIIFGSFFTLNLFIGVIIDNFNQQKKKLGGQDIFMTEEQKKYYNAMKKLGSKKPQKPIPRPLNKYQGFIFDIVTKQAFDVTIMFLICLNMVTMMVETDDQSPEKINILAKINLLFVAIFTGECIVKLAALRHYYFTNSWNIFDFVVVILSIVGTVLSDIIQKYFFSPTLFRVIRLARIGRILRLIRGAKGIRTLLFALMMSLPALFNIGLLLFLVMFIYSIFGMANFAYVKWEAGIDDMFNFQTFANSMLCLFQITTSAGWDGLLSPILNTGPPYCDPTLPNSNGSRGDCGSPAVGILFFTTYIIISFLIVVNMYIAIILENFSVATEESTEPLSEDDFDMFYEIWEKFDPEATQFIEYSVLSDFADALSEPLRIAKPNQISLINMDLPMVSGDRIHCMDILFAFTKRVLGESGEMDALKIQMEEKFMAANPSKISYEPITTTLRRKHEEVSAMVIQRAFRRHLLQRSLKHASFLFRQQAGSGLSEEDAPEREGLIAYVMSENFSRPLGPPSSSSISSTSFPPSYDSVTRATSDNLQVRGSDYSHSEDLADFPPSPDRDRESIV
Sequence of Phosphodiesterase 4B (Q07343 whole entry): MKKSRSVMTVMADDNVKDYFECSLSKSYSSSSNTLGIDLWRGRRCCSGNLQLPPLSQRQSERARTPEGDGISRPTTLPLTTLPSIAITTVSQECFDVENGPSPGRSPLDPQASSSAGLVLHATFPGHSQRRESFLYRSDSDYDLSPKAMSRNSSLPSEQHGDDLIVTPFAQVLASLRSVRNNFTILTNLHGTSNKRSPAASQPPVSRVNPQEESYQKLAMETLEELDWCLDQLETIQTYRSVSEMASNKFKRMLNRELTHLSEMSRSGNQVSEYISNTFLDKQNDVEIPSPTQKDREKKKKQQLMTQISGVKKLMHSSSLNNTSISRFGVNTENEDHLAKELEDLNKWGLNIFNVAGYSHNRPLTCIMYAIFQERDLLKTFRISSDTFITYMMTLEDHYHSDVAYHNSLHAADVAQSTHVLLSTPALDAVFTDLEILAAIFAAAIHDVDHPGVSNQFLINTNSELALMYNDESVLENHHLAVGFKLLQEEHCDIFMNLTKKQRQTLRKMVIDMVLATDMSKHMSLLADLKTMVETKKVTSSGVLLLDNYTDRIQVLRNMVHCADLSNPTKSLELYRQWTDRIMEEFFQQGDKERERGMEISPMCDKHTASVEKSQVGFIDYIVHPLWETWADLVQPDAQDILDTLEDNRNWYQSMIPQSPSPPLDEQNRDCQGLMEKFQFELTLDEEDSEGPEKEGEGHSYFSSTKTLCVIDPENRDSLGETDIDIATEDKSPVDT
Sequence of Norepinephrin Transporter (P23975 whole entry): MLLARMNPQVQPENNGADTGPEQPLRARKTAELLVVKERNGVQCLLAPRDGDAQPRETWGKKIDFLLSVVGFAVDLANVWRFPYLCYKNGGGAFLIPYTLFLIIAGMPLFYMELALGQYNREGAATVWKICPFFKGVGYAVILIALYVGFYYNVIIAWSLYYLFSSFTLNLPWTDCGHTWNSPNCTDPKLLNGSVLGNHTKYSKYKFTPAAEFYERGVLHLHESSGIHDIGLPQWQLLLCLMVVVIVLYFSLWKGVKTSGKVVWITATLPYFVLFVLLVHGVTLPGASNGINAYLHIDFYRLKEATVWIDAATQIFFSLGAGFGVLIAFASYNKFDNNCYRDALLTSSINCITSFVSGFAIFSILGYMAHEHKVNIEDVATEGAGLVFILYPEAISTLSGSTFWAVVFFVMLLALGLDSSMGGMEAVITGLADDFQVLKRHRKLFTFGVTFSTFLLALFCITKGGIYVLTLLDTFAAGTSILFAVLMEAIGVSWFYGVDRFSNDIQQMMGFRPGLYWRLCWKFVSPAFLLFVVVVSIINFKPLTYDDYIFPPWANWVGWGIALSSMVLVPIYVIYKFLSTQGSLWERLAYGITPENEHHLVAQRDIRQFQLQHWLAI
Sequence of recombinant human LDHB (P07195 whole entry): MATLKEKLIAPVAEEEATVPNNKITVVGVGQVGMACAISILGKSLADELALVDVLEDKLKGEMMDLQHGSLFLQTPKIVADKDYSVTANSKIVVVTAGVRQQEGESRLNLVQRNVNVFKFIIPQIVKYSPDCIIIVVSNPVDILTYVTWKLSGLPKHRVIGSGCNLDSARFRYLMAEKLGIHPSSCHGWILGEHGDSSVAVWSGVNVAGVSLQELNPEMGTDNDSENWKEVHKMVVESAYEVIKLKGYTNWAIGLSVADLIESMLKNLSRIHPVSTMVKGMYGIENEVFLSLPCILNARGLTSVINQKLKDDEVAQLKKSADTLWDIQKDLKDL

Take `COc1ncc(-c2ccc3c(Nc4cc(C(=O)O)cc(C5CCCC5)c4)c(S(=O)(=O)NC4CC4)cnc3c2)c(OC)n1` [Compound 2]: the IC50 in [1] is 100 µM; in series [2], 15.8 µM; in series [3], 0.22 ± 0.02 µM; in [4], 31.6 µM; in [5], 39.8 µM; in series [7], 0.501 µM. Besides, the “intracellular fructose-1,6-bisphosphate (FBP) level” value in series [6] was “increase intracellular levels of fructose-1,6-bisphosphate (FBP)”. Further, the EC50 in series [8] is 31.6 µM.

For the compound `COc1ncc(-c2ccc3c(Nc4cc(Oc5cc(F)cc(F)c5)cc(C(=O)O)c4)c(S(=O)(=O)NC4CC4)cnc3c2)c(OC)n1` [Compound 1], the IC50 was 100 µM in series [1]; 15.8 µM in series [2]; 63.1 µM in series [4]; 100 µM in series [5]; 1.26 µM in series [7]. Besides, the “oligomycin-dependent OCR (OCROLG)” value in series [9] (10 μM) was “OCROLG was reduced”; in [9] (1 to 3 μM, glucose/glutamine medium), “increased oligomycin-dependent OCR”. Further, the figures for the EC50 in series [9] (read-out: ECAR change EC50), in series [9] (read-out: OCR change EC50) and in series [8] were 0.6 ± 0.1 µM, 0.9 ± 0.3 µM and 31.6 µM, respectively. Also, the fraction unbound in series [10] is 0.012. Further, the “apparent intracellular concentration versus medium” value in [11] is listed as “higher apparent intracellular concentrations than that of the medium”. For the same compound, the blood compound level in series [12] was not above 2.5 ng/mL. Moreover, the “intracellular fructose-1,6-bisphosphate (FBP) level” value in [6] was “increase intracellular levels of fructose-1,6-bisphosphate (FBP); also recorded: Increase in fructose-1,6-bisphosphate (FBP)”. Also, the “concentrations with no changes in OCR or ECAR” value in [13] (permeabilized HepG2, pyruvate/malate/ADP) is given as “up to 3 μM”. Also, the “doses with direct mitochondrial effects (reduced mitochondrial respiration)” value in series [13] (permeabilized HepG2, decreased OCR, increased ECAR) was not below 10 µM.
